Experiment [1] has as its system ATCC 700671 PRSP (S. pneumoniae). Kind of experiment: In vivo protection effects of Ph-SP. Also noted: species or system mice. The settings on record: 5 animals. As for the experimental part:
To assess the in vivo effect of Ph-SP, mice were injected with ATCC 700671 PRSP intraperitoneally, followed by intravenous injections of PH-SP or controls.
One hour after administration of the fatal dose of ATCC 700671 PRSP (10^5 CFU/ml), each mouse was injected through the tail vein with test agents at three dosages as described in Table 4.

The test system of experiment [2] is S. aureus strain ATCC BAA-42 MRSA. The settings on record: all agents 5 μg/ml.

As for cephalomycin, in experiment [1] (5 mg/kg tail vein), the “Death distribution in hours 24 h” value came out at 3, the “Death distribution in hours 48 h” value is 1, the “Death distribution in hours 72 h” value was found to be 0 and the “Death distribution in hours 96 h” value is 0. Also, in experiment [1] (5 mg/kg tail vein), the “Death distribution in hours 120 h” value is given as 0, the “Death distribution in hours 144 h” value is reported as 0, the “Death distribution in hours 168 h” value was 0 and the “Number of Death” value came to 4. Further, in experiment [1] (10 mg/kg tail vein), the “Death distribution in hours 24 h” value stood at 2, the “Death distribution in hours 48 h” value amounted to 1, the “Death distribution in hours 72 h” value amounted to 0 and the “Death distribution in hours 96 h” value was found to be 0. Further, in experiment [1] (10 mg/kg tail vein), the “Death distribution in hours 120 h” value is listed as 0, the “Death distribution in hours 144 h” value is 0, the “Death distribution in hours 168 h” value stood at 0 and the “Number of Death” value turned out to be 3.

B1: Ph-SAR1: the AgrDI pheromone of S. aureus linked to the N-terminus of Colicin Ia (protein)
chain: YSTCDFIMSDPVRITNPGAESLGYDSDGHEIMAVDIYVNPPRVDVFHGTPPAWSSFGNKTIWGGNEWVDDSPTRSDIEKRDKEITAYKNTLSAQQKENENKRTEAGKRLSAAIAAREKDENTLKTLRAGNADAADITRQEFRLLQAELREYGFRTEIAGYDALRLHTESRMLFADADSLRISPREARSLIEQAEKRQKDAQNADKKAADMLAEYERRKGILDTRLSELEKNGGAALAVLDAQQARLLGQQTRNDRAISEARNKLSSVTESLNTARNALTRAEQQLTQQKNTPDGKTIVSPEKFPGRSSTNHSIVVSGDPRFAGTIKITTSAVIDNRANLNYLLSHSGLDYKRNILNDRNPVVTEDVEGDKKIYNAEVAEWDKLRQRLLDARNKITSAESAVNSARNNLSARTNEQKHANDALNALLKEKENIRNQLSGINQKIAEEKRKQDELKATKDAINFTTEFLKSVSEKYGAKAEQLAREMAGQAKGKKIRNVEEALKTYEKYRADINKKINAKDRAAIAAALESVKLSDISSNLNRFSRGLGYAGKFTSLADWITEFGKAVRTENWRPLFVKTETIIAGNAATALVALVFSILTGSALGIIGYGLLMAVTGALIDESLVEKANKFWGI
modifications: Pheromone peptide from Staphylococcus aureus AgrDI attached to Colicin Ia
For the molecule B1, the inhibition of growth entry in experiment [2] is reported as “did not inhibit the growth”.

B2: Ph-SA4: Colicin Ia linked to the AgrDIV pheromone of S. aureus (protein)
chain: SDPVRITNPGAESLGYDSDGHEIMAVDIYVNPPRVDVFHGTPPAWSSFGNKTIWGGNEWVDDSPTRSDIEKRDKEITAYKNTLSAQQKENENKRTEAGKRLSAAIAAREKDENTLKTLRAGNADAADITRQEFRLLQAELREYGFRTEIAGYDALRLHTESRMLFADADSLRISPREARSLIEQAEKRQKDAQNADKKAADMLAEYERRKGILDTRLSELEKNGGAALAVLDAQQARLLGQQTRNDRAISEARNKLSSVTESLNTARNALTRAEQQLTQQKNTPDGKTIVSPEKFPGRSSTNHSIVVSGDPRFAGTIKITTSAVIDNRANLNYLLSHSGLDYKRNILNDRNPVVTEDVEGDKKIYNAEVAEWDKLRQRLLDARNKITSAESAVNSARNNLSARTNEQKHANDALNALLKEKENIRNQLSGINQKIAEEKRKQDELKATKDAINFTTEFLKSVSEKYGAKAEQLAREMAGQAKGKKIRNVEEALKTYEKYRADINKKINAKDRAAIAAALESVKLSDISSNLNRFSRGLGYAGKFTSLADWITEFGKAVRTENWRPLFVKTETIIAGNAATALVALVFSILTGSALGIIGYGLLMAVTGALIDESLVEKANKFWGIYSTCYFIM
modifications: Colicin attached to Pheromone peptide encoding Staphylococcus aureus AgrDIV
Consider B2, for which, in experiment [2], the inhibition of growth entry was “best inhibitory effects”.

For the origin of these results see patent US20050153872A1, “Methods and compositions for the treatment of infection” (priority 2004, published 2005).
